We go through two molecules from ChEMBL document CHEMBL4334438, “Discovery of novel glycogen synthase kinase-3α inhibitors: Structure-based virtual screening, preliminary SAR and biological evaluation for treatment of acute myeloid leukemia” (Eur J Med Chem, 2019).

Assay [1] deals with Serine/threonine-protein kinase B-raf (Homo sapiens), P15056 [V600E]. Description: Inhibition of recombinant full length human B-Raf V599E mutant (416 to end residues) assessed as residual activity at 1 uM using myelin basic protein as substrate incubated for 40 mins in presence of [gamma-33ATP] by scintillation counting based radiometry assay relative to control.
The subject of assay [2] is Serine/threonine-protein kinase Chk2 (Homo sapiens), O96017 [I157T]. Kind of assay: Inhibition of recombinant human CHK2 I157T mutant (5 to end residues) assessed as residual activity at 1 uM using KKKVSRSGLYRSPSMPENLNRPR as substrate incubated for 40 mins in presence of [gamma-33ATP] by scintillation counting based radiometry assay relative to control.
Assay [3] deals with Mast/stem cell growth factor receptor Kit (Homo sapiens), P10721 [D816V]. Kind of assay: Inhibition of recombinant human C-Kit D816V mutant (544 to end residues) assessed as residual activity at 1 uM poly(Glu, Tyr) 4:1 as substrate incubated 40 mins in presence of [gamma-33ATP] by scintillation counting based radiometry assay relative to control.
The subject of assay [4] is Mast/stem cell growth factor receptor Kit (Homo sapiens), P10721 [D816H]. Kind of assay: Inhibition of recombinant human C-Kit D816H mutant (544 to end residues) assessed as residual activity at 1 uM poly(Glu, Tyr) 4:1 as substrate incubated 40 mins in presence of [gamma-33ATP] by scintillation counting based radiometry assay relative to control.
Assay [5] has as its target Epithelial discoidin domain-containing receptor 1 (Homo sapiens) (UniProt Q08345). Kind of assay: Inhibition of recombinant human DDR1 (492 to end residues) assessed as residual activity at 1 uM using KKKSPGEYVNIEFG as substrate at 40 mins in presence of [gamma-33ATP] by scintillation counting based radiometry assay relative to control.
Assay [6] deals with Tyrosine-protein kinase HCK (Homo sapiens) (UniProt P08631). Kind of assay: Inhibition of human HCK (230 to 497 residues) assessed as residual activity at 1 uM using KVEKIGEGTYGVVYK as substrate after 40 mins by [gamma-33ATP] radiometric assay relative to control.
The target in assay [7] is Inhibitor of nuclear factor kappa-B kinase subunit alpha (Homo sapiens) (UniProt O15111). Description: Inhibition of full length human IKKalpha assessed as residual activity at 1 uM using peptide as substrate after 40 mins by [gamma-33ATP] radiometric assay relative to control.
Assay [8] addresses MAP/microtubule affinity-regulating kinase 4 (Homo sapiens) (UniProt Q96L34). Description: Inhibition of recombinant full length human MARK4 assessed as residual activity at 1 uM using KKKVSRSGLYRSPSMPENLNRPR as substrate incubated for 40 mins in presence of [gamma-33ATP by scintillation counting based radiometry assay relative to control.
In assay [9] the target is Serine/threonine-protein kinase MRCK alpha (Homo sapiens) (UniProt Q5VT25). Description: Inhibition of recombinant human MRCKalpha (1 to 473 residues) assessed as residual activity at 1 uM using KKRNRTLTV as substrate measured after 40 mins in presence of [gamma33P]ATP by scintillation counting method relative to control.
The target of assay [10] is Serine/threonine-protein kinase PAK 4 (Homo sapiens) (UniProt O96013). Kind of assay: Inhibition of recombinant human PAK4 (295 to end residues) assessed as residual activity at 1 uM using myelin basic protein as substrate measured after 40 mins in presence of [gamma33P]ATP by scintillation counting method relative to control.
The target in assay [11] is PAS domain-containing serine/threonine-protein kinase (Homo sapiens) (UniProt Q96RG2). Description: Inhibition of recombinant human PASK (995 to end residues) assessed as residual activity at 1 uM using KKLNRTLSFAEPG as substrate measured after 40 mins in presence of [gamma33P]ATP by scintillation counting method relative to control.
Assay [12] concerns the target Serine/threonine-protein kinase D3 (Homo sapiens) (UniProt O94806). Kind of assay: Inhibition of recombinant full-length human PKD3 assessed as residual activity at 1 uM using KKLRRTLSVA as substrate measured after 40 mins in presence of [gamma33P]ATP by scintillation counting method relative to control.
The target in assay [13] is cGMP-dependent protein kinase 2 (Homo sapiens) (UniProt Q13237). Description: Inhibition of recombinant full-length human PRKG2 assessed as residual activity at 1 uM using KKLRRTLSFAEPG as substrate measured after 40 mins in presence of [gamma33P]ATP by scintillation counting method relative to control.
The species entered for assay [14] is Homo sapiens. Kind of assay: Inhibition of recombinant human Ros V2262A mutant (1883 to end residues) assessed as residual activity at 1 uM using KKKSPGEYVNIEFG as substrate measured after 40 mins in presence of [gamma33P]ATP by scintillation counting method relative to control.
Assay [15] has as its target Mitogen-activated protein kinase 14 (Homo sapiens) (UniProt Q16539). Kind of assay: Inhibition of recombinant human full length SAPK2a assessed as residual activity at 1 uM using myelin basic protein as substrate measured after 40 mins in presence of [gamma33P]ATP by scintillation counting method relative to control.
Assay [16] addresses Mitogen-activated protein kinase 11 (Homo sapiens) (UniProt Q15759). Kind of assay: Inhibition of recombinant human full length SAPK2b assessed as residual activity at 1 uM using myelin basic protein as substrate measured after 40 mins in presence of [gamma33P]ATP by scintillation counting method relative to control.
For assay [17], the target named is Serine/threonine-protein kinase PLK2 (Homo sapiens) (UniProt Q9NYY3). Description: Inhibition of human Snk (65 to 409 residues) assessed as residual activity at 1 uM using casein as substrate measured after 40 mins in presence of [gamma33P]ATP by scintillation counting method relative to control.
In assay [18] the target is Tau-tubulin kinase 1 (Homo sapiens) (UniProt Q5TCY1). Kind of assay: Inhibition of human TTBK1 (1 to 479 residues) assessed as residual activity at 1 uM using Casein as substrate measured after 40 mins in presence of [gamma33P]ATP by scintillation counting method relative to control.
Assay [19] concerns the target Serine/threonine-protein kinase VRK2 (Homo sapiens) (UniProt Q86Y07). Kind of assay: Inhibition of human VRK2 (1 to 336 residues) assessed as residual activity at 1 uM using casein as substrate measured after 40 mins in presence of [gamma33P]ATP by scintillation counting method relative to control.
Assay [20] concerns PI3-kinase p110-alpha/p85-alpha (Homo sapiens), P27986+P42336 [E542K]. Kind of assay: Inhibition of recombinant full-length human PI3K p110alpha E542K mutant/p85alpha assessed as residual activity at 1 uM assessed as residual activity at 1 uM using phosphatidylinositol-4, 5-bisphosphate as substrate incubated for 40 mins in presence of [gamma33P]ATP by scintillation counting based radiometry assay relative to control. It counts as protein-complex assay.

Assay [21] has as its target Phosphatidylinositol 5-phosphate 4-kinase type-2 alpha (Homo sapiens) (UniProt P48426). Kind of assay: Inhibition of recombinant full-length human PIP4K2alpha at 1 uM assessed as residual activity at 1 uM using phosphatidylinositol 5-phosphate as substrate measured after 40 mins by HTRF assay. (In general: TR-FRET usually uses a lanthanide donor and a delayed reading to cut background.)

Serine/threonine-protein kinase D3 (Homo sapiens), sequence (O94806 whole entry): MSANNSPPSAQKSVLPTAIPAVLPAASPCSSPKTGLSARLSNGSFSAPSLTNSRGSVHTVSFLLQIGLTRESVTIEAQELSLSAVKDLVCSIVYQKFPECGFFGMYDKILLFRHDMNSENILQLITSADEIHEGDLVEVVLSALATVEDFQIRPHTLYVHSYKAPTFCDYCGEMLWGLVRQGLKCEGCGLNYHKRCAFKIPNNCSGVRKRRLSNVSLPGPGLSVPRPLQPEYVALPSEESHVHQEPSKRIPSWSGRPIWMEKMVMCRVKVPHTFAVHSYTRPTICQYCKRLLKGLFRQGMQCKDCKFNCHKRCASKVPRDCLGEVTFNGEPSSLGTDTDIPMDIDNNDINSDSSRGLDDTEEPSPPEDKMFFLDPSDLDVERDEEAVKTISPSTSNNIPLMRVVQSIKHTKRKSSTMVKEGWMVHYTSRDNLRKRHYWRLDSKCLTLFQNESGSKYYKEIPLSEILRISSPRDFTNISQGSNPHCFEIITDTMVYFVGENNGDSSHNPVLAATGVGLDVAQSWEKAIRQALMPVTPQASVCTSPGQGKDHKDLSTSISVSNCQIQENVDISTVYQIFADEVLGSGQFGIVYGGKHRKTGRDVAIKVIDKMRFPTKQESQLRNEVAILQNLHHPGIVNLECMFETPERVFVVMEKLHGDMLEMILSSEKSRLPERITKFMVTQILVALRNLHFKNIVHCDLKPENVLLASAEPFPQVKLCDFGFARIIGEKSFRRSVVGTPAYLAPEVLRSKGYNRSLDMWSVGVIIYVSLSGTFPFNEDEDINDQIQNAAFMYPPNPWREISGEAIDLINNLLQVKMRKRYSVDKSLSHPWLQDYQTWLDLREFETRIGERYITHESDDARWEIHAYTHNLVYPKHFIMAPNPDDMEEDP
Phosphatidylinositol 5-phosphate 4-kinase type-2 alpha (Homo sapiens), sequence (P48426 whole entry): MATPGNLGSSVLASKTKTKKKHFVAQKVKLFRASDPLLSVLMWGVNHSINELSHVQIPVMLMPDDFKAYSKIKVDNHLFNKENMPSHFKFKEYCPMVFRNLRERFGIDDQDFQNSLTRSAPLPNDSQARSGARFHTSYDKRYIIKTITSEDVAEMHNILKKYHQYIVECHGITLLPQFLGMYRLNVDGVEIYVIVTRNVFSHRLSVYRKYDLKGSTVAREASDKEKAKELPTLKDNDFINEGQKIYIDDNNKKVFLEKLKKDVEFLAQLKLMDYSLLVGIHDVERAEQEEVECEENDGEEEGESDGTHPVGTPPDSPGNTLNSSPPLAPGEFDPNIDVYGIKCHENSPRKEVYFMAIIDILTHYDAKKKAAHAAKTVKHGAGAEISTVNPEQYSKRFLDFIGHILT
Serine/threonine-protein kinase Chk2 (Homo sapiens), O96017 [I157T], sequence (O96017 whole entry I157T): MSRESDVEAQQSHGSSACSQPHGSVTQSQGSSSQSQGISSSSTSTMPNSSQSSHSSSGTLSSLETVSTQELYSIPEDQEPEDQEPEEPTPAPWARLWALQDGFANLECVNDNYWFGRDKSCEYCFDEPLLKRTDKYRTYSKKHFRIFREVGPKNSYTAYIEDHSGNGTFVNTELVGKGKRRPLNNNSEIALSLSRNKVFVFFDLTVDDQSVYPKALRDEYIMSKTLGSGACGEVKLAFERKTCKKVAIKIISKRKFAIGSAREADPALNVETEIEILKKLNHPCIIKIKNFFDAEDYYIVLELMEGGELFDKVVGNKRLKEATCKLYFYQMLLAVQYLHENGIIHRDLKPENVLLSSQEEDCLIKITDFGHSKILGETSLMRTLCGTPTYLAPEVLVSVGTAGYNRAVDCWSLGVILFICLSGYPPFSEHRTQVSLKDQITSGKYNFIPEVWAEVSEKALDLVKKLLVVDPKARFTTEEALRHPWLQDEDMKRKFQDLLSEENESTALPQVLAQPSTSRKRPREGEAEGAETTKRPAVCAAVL
Mitogen-activated protein kinase 14 (Homo sapiens), sequence (Q16539 whole entry): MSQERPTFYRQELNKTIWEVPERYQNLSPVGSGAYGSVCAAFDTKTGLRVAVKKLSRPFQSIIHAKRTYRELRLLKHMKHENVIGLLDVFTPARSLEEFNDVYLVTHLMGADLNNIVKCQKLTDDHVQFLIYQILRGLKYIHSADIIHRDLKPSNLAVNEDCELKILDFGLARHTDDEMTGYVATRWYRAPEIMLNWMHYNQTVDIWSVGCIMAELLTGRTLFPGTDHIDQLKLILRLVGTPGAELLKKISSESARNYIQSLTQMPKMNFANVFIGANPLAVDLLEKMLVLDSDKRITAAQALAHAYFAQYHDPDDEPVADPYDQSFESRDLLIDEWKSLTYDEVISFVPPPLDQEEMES
Serine/threonine-protein kinase VRK2 (Homo sapiens), sequence (Q86Y07 whole entry, the tested form may be a part): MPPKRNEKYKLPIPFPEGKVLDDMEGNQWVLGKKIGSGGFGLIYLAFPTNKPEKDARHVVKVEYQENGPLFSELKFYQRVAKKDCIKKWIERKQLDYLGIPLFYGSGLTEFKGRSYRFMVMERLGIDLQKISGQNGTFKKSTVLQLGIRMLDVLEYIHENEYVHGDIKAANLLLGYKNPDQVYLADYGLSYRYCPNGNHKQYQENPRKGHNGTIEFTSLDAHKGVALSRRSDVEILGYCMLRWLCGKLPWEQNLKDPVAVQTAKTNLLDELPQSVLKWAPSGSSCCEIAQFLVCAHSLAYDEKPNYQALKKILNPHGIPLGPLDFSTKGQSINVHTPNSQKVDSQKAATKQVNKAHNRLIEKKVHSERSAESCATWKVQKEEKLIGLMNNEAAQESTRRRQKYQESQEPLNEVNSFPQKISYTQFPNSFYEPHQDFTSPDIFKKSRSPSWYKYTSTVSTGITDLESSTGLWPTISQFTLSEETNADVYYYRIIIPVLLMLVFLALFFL
Tyrosine-protein kinase HCK (Homo sapiens), sequence (P08631 2-526 limits assumed): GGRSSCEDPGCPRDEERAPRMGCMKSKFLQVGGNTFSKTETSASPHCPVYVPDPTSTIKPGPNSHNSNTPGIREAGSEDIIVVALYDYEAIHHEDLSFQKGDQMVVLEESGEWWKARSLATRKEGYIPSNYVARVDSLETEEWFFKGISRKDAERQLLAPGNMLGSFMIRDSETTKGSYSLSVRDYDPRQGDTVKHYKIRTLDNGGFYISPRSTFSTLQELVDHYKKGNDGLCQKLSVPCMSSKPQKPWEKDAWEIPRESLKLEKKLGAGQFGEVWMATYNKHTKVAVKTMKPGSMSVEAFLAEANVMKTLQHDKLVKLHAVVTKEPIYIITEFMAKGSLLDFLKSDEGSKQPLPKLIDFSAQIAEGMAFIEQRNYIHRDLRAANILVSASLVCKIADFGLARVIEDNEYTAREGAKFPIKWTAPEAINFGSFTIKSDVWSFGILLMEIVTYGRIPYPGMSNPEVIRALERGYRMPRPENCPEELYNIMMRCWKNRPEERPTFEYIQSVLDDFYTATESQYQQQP
Serine/threonine-protein kinase PLK2 (Homo sapiens), sequence (Q9NYY3 whole entry, looked up, the tested form may be a part): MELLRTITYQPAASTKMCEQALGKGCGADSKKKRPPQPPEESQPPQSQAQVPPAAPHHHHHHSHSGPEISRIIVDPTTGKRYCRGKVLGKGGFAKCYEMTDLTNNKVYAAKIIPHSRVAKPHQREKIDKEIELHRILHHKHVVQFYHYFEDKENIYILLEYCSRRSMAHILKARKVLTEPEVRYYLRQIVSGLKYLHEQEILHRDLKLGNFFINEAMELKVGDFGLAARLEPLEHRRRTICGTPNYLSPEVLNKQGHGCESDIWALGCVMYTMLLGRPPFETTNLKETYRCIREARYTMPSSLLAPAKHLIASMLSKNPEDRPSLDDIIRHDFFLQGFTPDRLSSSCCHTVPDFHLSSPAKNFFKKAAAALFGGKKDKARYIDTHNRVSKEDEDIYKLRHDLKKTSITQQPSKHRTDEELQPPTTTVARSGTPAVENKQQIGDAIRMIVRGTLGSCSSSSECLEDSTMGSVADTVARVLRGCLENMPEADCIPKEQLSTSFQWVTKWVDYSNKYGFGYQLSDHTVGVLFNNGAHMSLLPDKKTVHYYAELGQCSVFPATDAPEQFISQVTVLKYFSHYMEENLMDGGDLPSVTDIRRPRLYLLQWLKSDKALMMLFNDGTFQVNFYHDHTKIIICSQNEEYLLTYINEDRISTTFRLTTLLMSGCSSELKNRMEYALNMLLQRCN
cGMP-dependent protein kinase 2 (Homo sapiens), sequence (Q13237 whole entry): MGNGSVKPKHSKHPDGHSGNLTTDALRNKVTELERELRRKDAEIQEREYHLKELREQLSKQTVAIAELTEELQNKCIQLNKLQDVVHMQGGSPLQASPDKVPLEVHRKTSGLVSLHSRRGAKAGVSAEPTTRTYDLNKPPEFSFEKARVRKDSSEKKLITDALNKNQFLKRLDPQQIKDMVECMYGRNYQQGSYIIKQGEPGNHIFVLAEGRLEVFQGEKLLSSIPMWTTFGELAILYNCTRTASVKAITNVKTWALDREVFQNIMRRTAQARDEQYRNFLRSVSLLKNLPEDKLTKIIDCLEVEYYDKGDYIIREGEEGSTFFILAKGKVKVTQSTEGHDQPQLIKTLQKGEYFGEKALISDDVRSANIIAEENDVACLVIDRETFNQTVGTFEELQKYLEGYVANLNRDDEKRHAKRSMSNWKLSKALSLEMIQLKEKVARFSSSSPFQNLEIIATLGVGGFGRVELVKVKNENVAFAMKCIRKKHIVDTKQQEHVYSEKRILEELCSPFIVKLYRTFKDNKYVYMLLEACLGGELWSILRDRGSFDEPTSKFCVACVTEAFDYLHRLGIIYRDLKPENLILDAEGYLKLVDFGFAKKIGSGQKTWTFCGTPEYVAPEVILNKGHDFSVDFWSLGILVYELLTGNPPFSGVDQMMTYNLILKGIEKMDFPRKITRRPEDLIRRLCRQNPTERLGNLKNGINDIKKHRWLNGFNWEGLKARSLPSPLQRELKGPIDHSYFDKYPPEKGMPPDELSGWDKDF

With `N=C1NC(=O)/C(=C\c2ccc(-c3cccc([N+](=O)[O-])c3)o2)S1`, the Activity in assay [1] was determined as 95%; in assay [2], 85%; in assay [3] it was 94%; in [4], 89%; in [5] it was 99%; in assay [6], 72%. The Activity in [7] was determined as 102%; in assay [8], 92%; in assay [9] it was 103%; in assay [10] it was 92%; in assay [11] it was 92%; in assay [12] it was 89%. The Activity in [13] was determined as 51%; in assay [14], 95%; in assay [15], 100%; in assay [16] it was 100%; in [17], 92%; in assay [18], 104%. Also, the Activity in assay [19] amounted to 101%; in assay [20], 99%; in assay [21] it was 99%.
Take `C=CCOC(=O)c1cc(-c2ccc(/C=C3/NC(=S)NC3=O)o2)ccc1Cl`: the Activity in assay [1] came out at 87%; in [2], 91%; in assay [3], 97%; in assay [4], 97%; in [5], 106%; in [6] it was 73%. Further, the Activity in [7] is 104%; in assay [8], 113%; in assay [9] it was 98%; in [10], 101%; in [11], 97%; in assay [12], 94%. The Activity in assay [13] is 94%; in assay [14] it was 118%; in assay [15] it was 101%; in [16] it was 100%; in assay [17], 91%; in [18], 114%. Moreover, the results for the Activity in [19], in assay [20] and in assay [21] were 100%, 91% and 98%, respectively.
